Experimental data from patent publication US8138148B2, “GDNF derived peptides” (Copenhagen University, priority 2005, dated 2012).

How the values were obtained:
hippocampal neurons = assay: Neurite outgrowth of hippocampal neurons transfected with dominant negative FGFR; type: cell-based, rat; settings: 10 ng/ml GDNF or 3 μg/ml GDNFp1, 18 hours, dnFGFR vs empty vector
Experimental: For cocultures, L-cells were seeded in 8-well LabTek® Permanox Chamber slides at a density of 100.000 cells/well, except for transfection experiments where cells were seeded in 4-well LabTek® Permanox Chamber slides at a density of 200.000 cells/well. L-cells were grown for 24 hours in DMEM supplemented with 10% (v/v) FCS, 1% (v/v) glutamax, 100 U/ml penicillin, 100 μg/ml streptomycin, 2.5 μg/ml fungizone, and 567 μg/ml neomycin (G418), followed by washing twice in neurobasal medium with supplements before primary hippocampal neurons were seeded at a density of 7.000 cells/well in 8-well slides or 20.000 cells/well in 4-well slides.
Additionally, neurons were transiently transfected with a dominant negative version of the FGFR (dnFGFR), As an alternative to the use of a pharmacological FGFR inhibitor, The dnFGFR plasmid encodes an FGFR that lacks the kinase domain. This mutant receptor inhibits the function of wild type FGFR by engaging in dimers that lack kinase activity. Transfection with an empty vector served as control. Transfection was also done with wtFGFR in order to assess the effect of overexpressing the FGFR.
Transfections were performed with a Nucleofector™ device and a Rat Neuron Nucleofector™ kit (Amaxa Inc., Gaithersburg, Md., USA). This transfection method is based on electroporation in combination with a Nucleofector™ solution containing lipophilic agents. These agents form liposomes containing the plasmid DNA, which then enter the cells during electroporation. The method allows transfection of undividing cells such as neurons. 3 μg of the plasmid of interest was mixed with the Nucleofector™ solution and primary hippocampal neurons were resuspended in the mixture, electroporated in the Nucleofector™ device, and transferred to neurobasal medium with supplements and 5% (v/v) FCS. Cells were then incubated for 2 hours after which they were resuspended in medium without serum, counted, seeded and incubated for 6 hours before GDNF or GDNFp1 was added. Medium alone was added to control and cells were incubated for 18 hours.
All transient transfections in this study included co-transfection with a plasmid encoding EGFP, which allows the identification of transfected cells. To ensure that all EGFP-expressing cells also are transfected with the plasmid of interest, a ratio of […] between the EGFP-encoding plasmid and the plasmid of interest was used (i.e. 0.5 μg EGFP-encoding plasmid was used for each transfection).
Neurite outgrowth experiments were terminated after the stated time by fixating the cells. To visualize neurons and their neurites, immunostaining of GAP-43 was performed. This staining is specific for neurons. Transfected cells and their neurites should be visible without immunostaining due to the fluorescence emitted by GFP. […]

Ig1-2 modules of NCAM = assay: Surface plasmon resonance (SPR) binding analysis, NCAM Ig1-2; settings: immobilized receptor protein, 25° C., PBS pH 7.4
Experimental: (§1) Analysis of binding was performed employing a BIAcoreX instrument (Biosensor AB, Uppsala, Sweden) at 25° C. using 10 mM pH 7.4 sodium phosphate containing 150 mM NaCl as running buffer (phosphate-buffered saline, PBS). The flow-rate was 5 μl/min. Data were analysed by non-linear curve-fitting using the manufacturer's software. The receptor proteins, e.g. NCAM Ig1-Ig2 and GFR proteins, were immobilized on a sensor chip CM5 using an amine coupling kit (Biosensor AB) as follows: the chip was activated by 20 μl activation solution; the protein was immobilized using 12 μl 20 μg/ml protein in 10 mM sodium phosphate buffer pH 6.0; the chip was blocked by 35 μl blocking solution. Various peptides at the indicated concentrations were injected into the sensor chip. The curve corresponding to the difference between binding to receptor and a blank chip was used for analysis.

GFRα1 receptor = molecular target: T1, GFRα1 receptor (Homo sapiens, UniProt P56159); assay: Surface plasmon resonance (SPR) binding analysis, GFRα1; settings: immobilized receptor protein, 25° C., PBS pH 7.4
T1 sequence (P56159 25-429): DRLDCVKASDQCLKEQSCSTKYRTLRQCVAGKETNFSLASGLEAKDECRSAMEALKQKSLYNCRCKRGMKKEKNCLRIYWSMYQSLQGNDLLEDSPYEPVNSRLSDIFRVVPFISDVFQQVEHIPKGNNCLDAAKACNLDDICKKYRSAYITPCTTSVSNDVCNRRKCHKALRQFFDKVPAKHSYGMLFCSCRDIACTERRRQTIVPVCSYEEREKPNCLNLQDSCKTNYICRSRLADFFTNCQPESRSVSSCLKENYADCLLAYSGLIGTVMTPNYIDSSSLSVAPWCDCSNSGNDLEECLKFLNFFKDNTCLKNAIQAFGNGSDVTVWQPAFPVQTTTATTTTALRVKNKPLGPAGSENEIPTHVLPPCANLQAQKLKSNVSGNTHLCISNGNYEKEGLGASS
Experimental: as §1

Which “neurite outgrowth mediated by the substance after transfection with dominant negative FGFR, on NCAM-expressing fibroblasts” value (hippocampal neurons; NCAM-expressing fibroblasts) does the source give for “ETTYDKILKNLSRNR (listed as Homo sapiens) [G2, GDNF fragment]” here?
Its value is “decreases neurite outgrowth”.

And the “neurite outgrowth mediated by the substance after transfection with dominant negative FGFR, on control fibroblasts” value (hippocampal neurons; control fibroblasts)?
Its value is “decreases neurite outgrowth”.

And the “binding to the Ig1-2 modules of NCAM (SPR)” value (Ig1-2 modules of NCAM)?
Its value is “Binding”.

And the “binding to the GFRα1 receptor (SPR)” value (GFRα1 receptor)?
The value was “binding”.
